According to patent publication US20250382344A1, “Soluble GLP1/GIP/NPY2 Receptor Triple Agonists” (Boehringer Ingelheim International GmH, priority 2024, published 2025):
Read-outs that look alike come from different tables or passages of the source.

How the values were obtained:
hGIPR = molecular target: T1, hGIPR (Homo sapiens, UniProt P48546); assay: hGIPR CreLuc assay in 0.5% and 100% plasma (CHO CRE-luciferase reporter cells); assay type: cell-based
T1 construct: expressed in transfected cells; host or cells: CHO CRE-luciferase reporter cells
T1 sequence (P48546 22-466): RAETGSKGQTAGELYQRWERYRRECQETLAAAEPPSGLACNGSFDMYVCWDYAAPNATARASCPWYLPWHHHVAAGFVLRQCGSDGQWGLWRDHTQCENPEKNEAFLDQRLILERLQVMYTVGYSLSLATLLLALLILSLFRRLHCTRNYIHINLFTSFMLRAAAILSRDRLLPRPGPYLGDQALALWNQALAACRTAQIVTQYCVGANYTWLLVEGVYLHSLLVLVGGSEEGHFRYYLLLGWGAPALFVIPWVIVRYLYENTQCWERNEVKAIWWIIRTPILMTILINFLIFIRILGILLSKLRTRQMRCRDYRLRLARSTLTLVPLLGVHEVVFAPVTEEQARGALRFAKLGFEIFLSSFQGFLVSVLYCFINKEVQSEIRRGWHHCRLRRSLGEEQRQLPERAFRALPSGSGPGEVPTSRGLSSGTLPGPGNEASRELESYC

[1] = Solubility in 0.1 M phosphate buffer at pH 7; assay type: physicochemical; details: 0.1 M phosphate buffer at pH 7, 10 mg/mL final peptide concentration, shaking 2 hours at room temperature, peptides as TFA-salts; measured sample pH 6.5-7.0
[2] = 0.5% human plasma, read-out: hGIPR 0.5% hP

Row | Structure (SMILES) | EC50 (hGIPR; hGIPR 0.5% hP (nM), 0.5% human plasma) [nM] | EC50 (hGIPR; hGIPR 100% hP (nM), 100% human plasma) [nM] | solubility at 2 h [1] [µg/mL] | EC50 (hGIPR; [2]) [nM]
1 | CC[C@H](C)[C@H](NC(=O)[C@H](CC(C)C)NC(=O)[C@H](Cc1c[nH]cn1)NC(=O)[C@H](CCCNC(=N)N)NC(=O)[C@@H](NC(=O)[C@H](Cc1ccccc1)NC(=O)[C@H](C)NC(=O)C(C)(C)NC(=O)[C@H](CCC(N)=O)NC(=O)[C@H](C)NC(=O)[C@H](CCC(N)=O)NC(=O)[C@H](CCCCN)NC(=O)[C@H](CCC(=O)O)NC(=O)[C@H](CC(C)C)NC(=O)C(C)(C)NC(=O)[C@@H](NC(=O)[C@H](CO)NC(=O)[C@H](CC(C)C)NC(=O)[C@H](CC(=O)O)NC(=O)[C@H](CO)NC(=O)[C@@H](NC(=O)[C@H](Cc1ccccc1)NC(=O)[C@@H](NC(=O)CNC(=O)[C@H](CCC(=O)O)NC(=O)C(C)(C)NC(=O)[C@@H](N)Cc1ccc(O)cc1)[C@@H](C)O)[C@@H](C)O)[C@@H](C)CC)C(C)C)C(=O)N[C@@H](CC(N)=O)C(=O)N[C@@H](CCCCNC(=O)CC[C@H](NC(=O)[C@@H](N)CCCCNC(=O)CC[C@H](NC(=O)CC[C@H](NC(=O)CC[C@H](NC(=O)CC[C@H](NC(=O)CC[C@H](NC(=O)CCCCCCCCCCCCCCCCCCC(=O)O)C(=O)O)C(=O)O)C(=O)O)C(=O)O)C(=O)O)C(=O)O)C(=O)NC(C)(C)C(=O)N[C@H](C(=O)N[C@@H](CCCNC(=N)N)C(=O)N[C@@H](CCC(N)=O)C(=O)N[C@@H](CCCNC(=N)N)C(=O)N[C@@H](Cc1ccc(O)cc1)C(N)=O)[C@@H](C)O [Compound 60, Y-Aib-E-G-T-F-T-S-D-L-S-I-Aib-L-E-K-Q-A-Q-Aib-A-F-V-R-H-L-I-N-K(1,3)-Aib-T-R-Q-R-Y-NH2.C20DA-gGlu-gGlu-gGlu-gGlu-gGlu-eLys-gGlu(1,2)] | 0.3 | 8 | 9600 | 
2 | CC[C@H](C)[C@H](NC(=O)[C@H](CC(C)C)NC(=O)[C@H](Cc1c[nH]cn1)NC(=O)[C@H](CCCNC(=N)N)NC(=O)[C@@H](NC(=O)[C@H](Cc1ccccc1)NC(=O)[C@H](C)NC(=O)[C@H](C)NC(=O)[C@H](CCC(N)=O)NC(=O)[C@H](C)NC(=O)[C@H](CCC(N)=O)NC(=O)[C@H](CCCCN)NC(=O)[C@H](CCC(=O)O)NC(=O)[C@H](CC(C)C)NC(=O)C(C)(C)NC(=O)[C@@H](NC(=O)[C@H](CO)NC(=O)[C@H](Cc1ccc(O)cc1)NC(=O)[C@H](CC(=O)O)NC(=O)[C@H](CO)NC(=O)[C@@H](NC(=O)[C@H](Cc1ccccc1)NC(=O)[C@@H](NC(=O)CNC(=O)[C@H](CCC(=O)O)NC(=O)C(C)(C)NC(=O)[C@@H](N)Cc1ccc(O)cc1)[C@@H](C)O)[C@@H](C)O)[C@@H](C)CC)C(C)C)C(=O)N[C@@H](CC(N)=O)C(=O)N[C@@H](CCCCNC(=O)[C@@H](N)CCCCNC(=O)CC[C@H](NC(=O)CC[C@H](NC(=O)CC[C@H](NC(=O)CC[C@H](NC(=O)CC[C@H](NC(=O)CC[C@H](NC(=O)CCCCCCCCCCCCCCCCC(=O)O)C(=O)O)C(=O)O)C(=O)O)C(=O)O)C(=O)O)C(=O)O)C(=O)NC(C)(C)C(=O)N[C@H](C(=O)N[C@@H](CCCNC(=N)N)C(=O)N[C@@H](CCC(N)=O)C(=O)N[C@@H](CCCNC(=N)N)C(=O)N[C@@H](Cc1ccc(O)cc1)C(N)=O)[C@@H](C)O [Compound 61, Y-Aib-E-G-T-F-T-S-D-Y-S-I-Aib-L-E-K-Q-A-Q-A-A-F-V-R-H-L-I-N-K(1,3)-Aib-T-R-Q-R-Y-NH2.C18DA-gGlu-gGlu-gGlu-gGlu-gGlu-gGlu-eLys(1,2)] |  |  | 3700 | 0.4
3 | CC[C@H](C)[C@H](NC(=O)[C@H](CC(C)C)NC(=O)[C@H](Cc1c[nH]cn1)NC(=O)[C@H](CCCNC(=N)N)NC(=O)[C@@H](NC(=O)[C@H](Cc1ccccc1)NC(=O)[C@H](C)NC(=O)C(C)(C)NC(=O)[C@H](CCC(N)=O)NC(=O)[C@H](C)NC(=O)[C@H](CCC(N)=O)NC(=O)[C@H](CC(C)C)NC(=O)[C@H](CCC(=O)O)NC(=O)[C@H](CC(C)C)NC(=O)C(C)(C)NC(=O)[C@@H](NC(=O)[C@H](CO)NC(=O)[C@H](Cc1ccc(O)cc1)NC(=O)[C@H](CC(=O)O)NC(=O)[C@H](CO)NC(=O)[C@@H](NC(=O)[C@H](Cc1ccccc1)NC(=O)[C@@H](NC(=O)CNC(=O)[C@H](CCC(=O)O)NC(=O)C(C)(C)NC(=O)[C@@H](N)Cc1ccc(O)cc1)[C@@H](C)O)[C@@H](C)O)[C@@H](C)CC)C(C)C)C(=O)N[C@@H](CC(N)=O)C(=O)N[C@@H](CCCCNC(=O)[C@@H](N)CCCCNC(=O)CC[C@H](NC(=O)CC[C@H](NC(=O)CC[C@H](NC(=O)CC[C@H](NC(=O)CC[C@H](NC(=O)CC[C@H](NC(=O)CCCCCCCCCCCCCCCCC(=O)O)C(=O)O)C(=O)O)C(=O)O)C(=O)O)C(=O)O)C(=O)O)C(=O)NC(C)(C)C(=O)N[C@H](C(=O)N[C@@H](CCCNC(=N)N)C(=O)N[C@@H](CCC(N)=O)C(=O)N[C@@H](CCCNC(=N)N)C(=O)N[C@@H](Cc1ccc(O)cc1)C(N)=O)[C@@H](C)O [Compound 65, Y-Aib-E-G-T-F-T-S-D-Y-S-I-Aib-L-E-L-Q-A-Q-Aib-A-F-V-R-H-L-I-N-K(1,3)-Aib-T-R-Q-R-Y-NH2.C18DA-gGlu-gGlu-gGlu-gGlu-gGlu-gGlu-eLys(1,2)] |  |  | 3900 | 0.7
4 | CC[C@H](C)[C@H](NC(=O)[C@H](CC(C)C)NC(=O)[C@H](Cc1c[nH]cn1)NC(=O)[C@H](CCCNC(=N)N)NC(=O)[C@@H](NC(=O)[C@H](Cc1ccccc1)NC(=O)[C@H](C)NC(=O)C(C)(C)NC(=O)[C@H](CCC(N)=O)NC(=O)[C@H](C)NC(=O)[C@H](CCC(N)=O)NC(=O)[C@H](CCCCN)NC(=O)[C@H](CCC(=O)O)NC(=O)[C@H](CC(C)C)NC(=O)C(C)(C)NC(=O)[C@@H](NC(=O)[C@H](CO)NC(=O)[C@H](Cc1ccc(O)cc1)NC(=O)[C@H](CC(=O)O)NC(=O)[C@H](CO)NC(=O)[C@@H](NC(=O)[C@H](Cc1ccccc1)NC(=O)[C@@H](NC(=O)CNC(=O)[C@H](CCC(=O)O)NC(=O)C(C)(C)NC(=O)[C@@H](N)Cc1ccc(O)cc1)[C@@H](C)O)[C@@H](C)O)[C@@H](C)CC)C(C)C)C(=O)N[C@@H](CC(N)=O)C(=O)N[C@@H](CCCCNC(=O)[C@@H](N)CCCCNC(=O)CC[C@H](NC(=O)CC[C@H](NC(=O)CC[C@H](NC(=O)CC[C@H](NC(=O)CC[C@H](NC(=O)CC[C@H](NC(=O)CCCCCCCCCCCCCCCCC(=O)O)C(=O)O)C(=O)O)C(=O)O)C(=O)O)C(=O)O)C(=O)O)C(=O)N[C@H](C(=O)N[C@H](C(=O)N[C@@H](CCCNC(=N)N)C(=O)N[C@@H](CCC(N)=O)C(=O)N[C@@H](CCCNC(=N)N)C(=O)N[C@@H](Cc1ccc(O)cc1)C(N)=O)[C@@H](C)O)[C@@H](C)CC [Compound 66, Y-Aib-E-G-T-F-T-S-D-Y-S-I-Aib-L-E-K-Q-A-Q-Aib-A-F-V-R-H-L-I-N-K(1,3)-I-T-R-Q-R-Y-NH2.C18DA-gGlu-gGlu-gGlu-gGlu-gGlu-gGlu-eLys(1,2)] |  |  | 5000 | 0.2
5 | CC[C@H](C)[C@H](NC(=O)[C@H](CC(C)C)NC(=O)[C@H](Cc1c[nH]cn1)NC(=O)[C@H](CCCNC(=N)N)NC(=O)[C@@H](NC(=O)[C@H](Cc1ccccc1)NC(=O)[C@H](C)NC(=O)C(C)(C)NC(=O)[C@H](CCC(N)=O)NC(=O)[C@H](C)NC(=O)[C@H](CCC(N)=O)NC(=O)[C@H](CCC(=O)O)NC(=O)[C@H](CCC(=O)O)NC(=O)[C@H](CC(C)C)NC(=O)C(C)(C)NC(=O)[C@@H](NC(=O)[C@H](CO)NC(=O)[C@H](Cc1ccc(O)cc1)NC(=O)[C@H](CC(=O)O)NC(=O)[C@H](CO)NC(=O)[C@@H](NC(=O)[C@H](Cc1ccccc1)NC(=O)[C@@H](NC(=O)CNC(=O)[C@H](CCC(=O)O)NC(=O)C(C)(C)NC(=O)[C@@H](N)Cc1ccc(O)cc1)[C@@H](C)O)[C@@H](C)O)[C@@H](C)CC)C(C)C)C(=O)N[C@@H](CC(N)=O)C(=O)N[C@@H](CCCCNC(=O)CC[C@H](NC(=O)CC[C@H](NC(=O)CC[C@H](NC(=O)CC[C@H](NC(=O)CC[C@H](NC(=O)CCCCCCCCCCCCCCCCC(=O)O)C(=O)O)C(=O)O)C(=O)O)C(=O)O)C(=O)O)C(=O)NC(C)(C)C(=O)N[C@H](C(=O)N[C@@H](CCCNC(=N)N)C(=O)N[C@@H](CCC(N)=O)C(=O)N[C@@H](CCCNC(=N)N)C(=O)N[C@@H](Cc1ccc(O)cc1)C(N)=O)[C@@H](C)O [Compound 75, Y-Aib-E-G-T-F-T-S-D-Y-S-I-Aib-L-E-E-Q-A-Q-Aib-A-F-V-R-H-L-I-N-K(1,3)-Aib-T-R-Q-R-Y-NH2.C18DA-gGlu-gGlu-gGlu-gGlu-gGlu(1,2)] |  |  | 4300 | 0.3
